Where two headings read alike, the source gives them in different places.
Tests used:
PI 4-kinase beta = PI 4-kinase beta (Homo sapiens, UniProt Q9UBF8); assay: Kinase Glo Luminescent Kinase Assay (Kglo), assay D; format: biochemical
PI 3-kinase gamma [1] = target: T1, PI 3-kinase gamma (Homo sapiens, UniProt P48736); assay: Cellular U937 AKT assay K1 (MSD); format: cell-based; conditions: U937 cells, K1 format; read-out: Assay K1 PI3Kγ IC50
PI 3-kinase alpha [2] = target: T2, PI 3-kinase alpha (Homo sapiens, UniProt P42336); assay: Cellular assay H1, p-Akt (S473) in Rat-1 cells, Surefire format; format: cell-based
Target sequence in this assay (P42336 whole entry): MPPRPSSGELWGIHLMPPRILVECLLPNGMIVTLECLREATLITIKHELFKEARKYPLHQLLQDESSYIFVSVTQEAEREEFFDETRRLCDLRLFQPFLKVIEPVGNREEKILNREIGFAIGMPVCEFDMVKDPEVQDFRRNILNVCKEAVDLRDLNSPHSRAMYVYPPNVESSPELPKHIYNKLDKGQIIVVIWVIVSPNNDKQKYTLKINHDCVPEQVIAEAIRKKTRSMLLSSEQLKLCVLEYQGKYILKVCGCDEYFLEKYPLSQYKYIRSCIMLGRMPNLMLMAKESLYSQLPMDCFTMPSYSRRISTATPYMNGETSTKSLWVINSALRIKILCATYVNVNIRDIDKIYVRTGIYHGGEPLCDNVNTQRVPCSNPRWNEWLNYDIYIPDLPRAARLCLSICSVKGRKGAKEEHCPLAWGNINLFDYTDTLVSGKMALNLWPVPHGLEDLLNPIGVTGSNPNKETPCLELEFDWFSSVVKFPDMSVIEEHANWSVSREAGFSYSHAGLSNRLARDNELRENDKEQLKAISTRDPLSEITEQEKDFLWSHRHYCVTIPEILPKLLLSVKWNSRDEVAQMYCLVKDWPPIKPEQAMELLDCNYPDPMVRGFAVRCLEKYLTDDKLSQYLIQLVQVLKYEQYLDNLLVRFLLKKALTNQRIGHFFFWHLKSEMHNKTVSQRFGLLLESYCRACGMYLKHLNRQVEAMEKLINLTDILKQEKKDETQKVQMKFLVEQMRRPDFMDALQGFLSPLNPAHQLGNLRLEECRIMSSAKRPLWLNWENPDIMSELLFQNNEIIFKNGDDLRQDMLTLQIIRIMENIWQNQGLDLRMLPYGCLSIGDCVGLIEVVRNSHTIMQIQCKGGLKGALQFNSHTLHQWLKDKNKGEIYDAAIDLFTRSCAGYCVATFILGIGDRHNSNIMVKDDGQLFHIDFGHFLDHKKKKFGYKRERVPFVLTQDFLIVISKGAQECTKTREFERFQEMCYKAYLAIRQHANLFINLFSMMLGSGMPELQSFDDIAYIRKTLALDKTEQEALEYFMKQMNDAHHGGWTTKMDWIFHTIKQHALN
Target sequence in this assay (Q63787 whole entry partner): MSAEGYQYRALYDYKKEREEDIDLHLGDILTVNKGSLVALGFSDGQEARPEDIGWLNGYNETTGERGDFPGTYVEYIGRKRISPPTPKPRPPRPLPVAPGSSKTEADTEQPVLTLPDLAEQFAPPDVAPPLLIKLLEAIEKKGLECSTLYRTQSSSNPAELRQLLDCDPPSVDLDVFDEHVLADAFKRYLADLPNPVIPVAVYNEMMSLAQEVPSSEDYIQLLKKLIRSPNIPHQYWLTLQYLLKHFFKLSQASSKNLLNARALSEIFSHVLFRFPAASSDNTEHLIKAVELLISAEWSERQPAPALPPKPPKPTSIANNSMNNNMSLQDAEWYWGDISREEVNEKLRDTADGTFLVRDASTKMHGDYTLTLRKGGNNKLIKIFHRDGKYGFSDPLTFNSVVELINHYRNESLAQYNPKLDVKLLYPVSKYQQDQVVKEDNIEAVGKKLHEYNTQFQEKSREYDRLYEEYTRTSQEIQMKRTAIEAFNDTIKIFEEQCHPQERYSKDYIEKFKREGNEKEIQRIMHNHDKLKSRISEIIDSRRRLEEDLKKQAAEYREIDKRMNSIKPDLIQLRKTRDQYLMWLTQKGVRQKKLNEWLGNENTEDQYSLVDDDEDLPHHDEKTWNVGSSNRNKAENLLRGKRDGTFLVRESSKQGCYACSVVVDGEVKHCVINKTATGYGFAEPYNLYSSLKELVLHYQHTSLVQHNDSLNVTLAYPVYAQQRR
Excerpt: Cellular Assays for PI 3-Kinase Alpha (H1), Beta (I1) and Delta (J1): Surefire Format
AlphaScreen (Amplified Luminescent Proximity Homogeneous Assay, ALPHA, Perkin Elmer) is a non-radioactive bead-based proximity assay technology to study biomolecular interactions in a homogenous microtiter plate format. The brand name SureFire denotes AlphaScreen assays that are adapted to quantify the phosphorylation of endogenous cellular proteins in cell lysates, by using matched antibody pairs, which consist of an anti-phospho-kinase and an anti-kinase antibody. The assay allows characterization of kinase signaling in cells as well as measurement of kinase inhibitor effects.
Using Rat-1 cells stably expressing myr-HA-tagged versions of the human PI3Kdelta, PI3Kalpha, or PI3Kbeta p110 catalytic subunit isoforms, the assay was developed as a two-plate protocol in a 384-well format.
For compound testing, the cells were seeded at a density of 4000 (Rat-1_PI3Kdelta), 7500 (Rat-1_PI3Kalpha), or 6200 (Rat-1_PI3Kbeta) cells in 20 μl complete growth medium into cell culture treated 384-well plates and were grown at 37° C./5% CO2/90% humidity for 24 h. Shortly before compound transfer, the complete medium was removed, 30 μl assay buffer (DMEM high glucose, 1×MEM NEAA, 10 mM HEPES, 2 mM L-glutamine, 0.1% (w/v) BSA) was added and 10 μl of the compound predilutions were transferred to the cells.

mTOR = mTOR (Homo sapiens, UniProt P42345); assay: Lanthascreen kinase binding assay, assay G
Description: Lanthascreen™ Kinase Binding Assay for mTOR (G)
Binding of an inhibitor to the kinase competes for binding with the tracer, resulting in a loss of FRET.
50 nL of compound dilutions were dispensed onto white 384-well small volume polystyrene plate.

[3] = tested on: IL-8-induced neutrophil shape change in human whole blood; assay: Whole blood neutrophil shape change assay (L); format: cell-based; conditions: Homo sapiens, Neutrophil, IL-8, human whole blood, read-out: Assay L WBSC IC50
[4] = rat, microsomes, 1 µM, pH 7.4
Description: (§1) The experiments were performed in 96-well glass plates at 37° C. on an automated Tecan EVO platform. Test compounds at a concentration of 10 mM in pure DMSO were diluted 1:1000 in water to 10 μM. […] Reactions were initiated by the addition of 150 μL of a cofactor solution containing 2 mM NADPH.

PI 3-kinase beta [5] = target: T3, PI 3-kinase beta (Homo sapiens, UniProt P42338); assay: Cellular assay I1, p-Akt (S473) in Rat-1 cells, Surefire format; format: cell-based
Target sequence in this assay (P42338 whole entry): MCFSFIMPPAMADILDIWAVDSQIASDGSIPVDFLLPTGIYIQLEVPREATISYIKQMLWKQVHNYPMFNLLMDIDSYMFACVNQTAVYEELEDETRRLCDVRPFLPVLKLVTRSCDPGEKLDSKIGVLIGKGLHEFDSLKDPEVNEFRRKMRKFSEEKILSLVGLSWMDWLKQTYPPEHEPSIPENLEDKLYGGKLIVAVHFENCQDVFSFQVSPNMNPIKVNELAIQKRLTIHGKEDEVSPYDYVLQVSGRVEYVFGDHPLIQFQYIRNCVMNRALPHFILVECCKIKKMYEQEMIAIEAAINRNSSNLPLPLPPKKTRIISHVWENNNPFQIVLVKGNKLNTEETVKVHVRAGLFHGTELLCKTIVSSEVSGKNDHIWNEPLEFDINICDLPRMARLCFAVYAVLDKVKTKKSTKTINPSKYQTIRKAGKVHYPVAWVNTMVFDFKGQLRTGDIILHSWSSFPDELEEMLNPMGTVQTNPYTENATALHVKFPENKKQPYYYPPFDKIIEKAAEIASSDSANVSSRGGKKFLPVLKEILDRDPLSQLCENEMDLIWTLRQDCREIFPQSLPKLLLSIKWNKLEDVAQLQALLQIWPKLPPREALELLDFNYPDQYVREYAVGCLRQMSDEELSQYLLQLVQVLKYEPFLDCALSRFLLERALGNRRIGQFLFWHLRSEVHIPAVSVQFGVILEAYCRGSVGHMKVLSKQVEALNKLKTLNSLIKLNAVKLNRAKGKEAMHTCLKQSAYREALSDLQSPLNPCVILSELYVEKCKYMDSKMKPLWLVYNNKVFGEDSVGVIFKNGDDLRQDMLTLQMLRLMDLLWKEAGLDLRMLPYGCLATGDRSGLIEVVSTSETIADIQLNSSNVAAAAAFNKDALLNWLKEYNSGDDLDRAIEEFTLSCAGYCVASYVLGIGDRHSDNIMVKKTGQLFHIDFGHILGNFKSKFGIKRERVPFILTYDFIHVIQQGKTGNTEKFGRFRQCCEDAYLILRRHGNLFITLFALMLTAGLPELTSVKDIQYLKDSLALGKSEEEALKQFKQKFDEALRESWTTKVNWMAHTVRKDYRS
Target sequence in this assay (Q63787 whole entry partner): as the sequence (Q63787 whole entry partner) above

PI 3-kinase delta [6] = target: T4, PI 3-kinase delta (Homo sapiens, UniProt O00329); assay: TR-FRET Adapta assay, assay F
Target sequence in this assay (O00329 whole entry): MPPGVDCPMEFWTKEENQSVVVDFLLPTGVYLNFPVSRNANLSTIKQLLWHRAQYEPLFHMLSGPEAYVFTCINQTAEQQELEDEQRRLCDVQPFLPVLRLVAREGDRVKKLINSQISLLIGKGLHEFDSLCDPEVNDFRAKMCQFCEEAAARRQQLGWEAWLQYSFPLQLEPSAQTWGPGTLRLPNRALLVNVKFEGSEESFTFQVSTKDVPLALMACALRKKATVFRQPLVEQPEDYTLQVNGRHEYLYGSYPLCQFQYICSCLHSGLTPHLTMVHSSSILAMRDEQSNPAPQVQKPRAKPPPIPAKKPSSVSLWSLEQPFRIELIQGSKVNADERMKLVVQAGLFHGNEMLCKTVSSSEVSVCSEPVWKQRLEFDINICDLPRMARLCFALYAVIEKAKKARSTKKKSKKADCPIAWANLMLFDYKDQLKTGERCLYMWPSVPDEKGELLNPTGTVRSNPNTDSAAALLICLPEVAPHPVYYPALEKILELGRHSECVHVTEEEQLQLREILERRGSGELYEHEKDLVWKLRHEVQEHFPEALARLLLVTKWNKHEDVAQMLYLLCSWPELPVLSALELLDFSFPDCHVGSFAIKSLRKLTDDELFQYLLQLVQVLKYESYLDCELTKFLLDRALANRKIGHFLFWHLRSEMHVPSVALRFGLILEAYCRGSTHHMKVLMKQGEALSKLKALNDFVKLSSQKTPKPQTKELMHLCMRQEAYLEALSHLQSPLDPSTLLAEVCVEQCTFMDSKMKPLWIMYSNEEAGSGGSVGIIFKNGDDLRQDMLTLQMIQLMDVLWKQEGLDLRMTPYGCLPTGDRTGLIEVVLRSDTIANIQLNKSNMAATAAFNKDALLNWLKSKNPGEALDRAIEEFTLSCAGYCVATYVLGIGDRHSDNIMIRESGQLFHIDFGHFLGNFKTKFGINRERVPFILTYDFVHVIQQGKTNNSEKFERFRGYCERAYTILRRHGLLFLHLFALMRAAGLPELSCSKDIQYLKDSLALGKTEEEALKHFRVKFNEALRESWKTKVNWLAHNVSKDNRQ
Target sequence in this assay (P27986 461-568 partner): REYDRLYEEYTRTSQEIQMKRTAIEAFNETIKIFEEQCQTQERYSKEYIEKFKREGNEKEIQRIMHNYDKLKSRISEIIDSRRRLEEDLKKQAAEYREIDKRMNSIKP

PI 3-kinase alpha [7] = target: T2, PI 3-kinase alpha; assay: Kinase Glo Luminescent Kinase Assay (Kglo), assay A; format: biochemical; conditions: read-out: Assay A PI3Kα IC50
Target sequence in this assay (P42336 whole entry): as the sequence (P42336 whole entry) above

PI 3-kinase delta [8] = target: T4, PI 3-kinase delta; assay: Cellular assay J1, p-Akt (S473) in Rat-1 cells, Surefire format; format: cell-based
Target sequence in this assay (O00329 whole entry): as the sequence (O00329 whole entry) above
Target sequence in this assay (Q63787 whole entry partner): as the sequence (Q63787 whole entry partner) above

PI 3-kinase gamma [9] = target: T1, PI 3-kinase gamma; assay: TR-FRET Adapta assay, assay E; format: biochemical; conditions: read-out: Assay E PI3Kγ IC50
Vps34 = Vps34 (Homo sapiens, UniProt Q8NEB9); assay: Kinase Glo Luminescent Kinase Assay (Kglo), assay C; format: biochemical
PI 3-kinase beta [10] = target: T3, PI 3-kinase beta; assay: Kinase Glo Luminescent Kinase Assay (Kglo), assay B; format: biochemical; conditions: read-out: Assay B PI3Kβ IC50
Target sequence in this assay (P42338 whole entry): as the sequence (P42338 whole entry) above
Target sequence in this assay (P27986 461-568 partner): as the sequence (P27986 461-568 partner) above

PI 3-kinase alpha [11] = target: T2, PI 3-kinase alpha; assay: Cellular assay H2, p-AKT (Ser473) in Rat-1 cells, HTRF format; format: cell-based; conditions: asterisked data: version H2 (HTRF format), read-out: Assay H PI3Kα IC50
Target sequence in this assay (P42336 whole entry): as the sequence (P42336 whole entry) above
Target sequence in this assay (Q63787 whole entry partner): as the sequence (Q63787 whole entry partner) above
Description: (§2) Cellular Assays for PI 3-Kinase Alpha (H2), Beta (12) and Delta (J2): HTRF (Homogeneous Time Resolved Fluorescence) Format
(§3) All cell lines were cultivated in complete growth medium (DMEM high glucose GlutaMAX™ Pyruvate, 10% (v/v) fetal bovine serum, 0.1 mM MEM NEAA, 25 mM HEPES, puromycin 10 μg/mL, 100 U/ml Penicillin, 100 μg/ml Streptomycin) to 90% confluency at 37° C./5% CO2/90% humidity in a humidified CO2 incubator and were split twice a week.
(§4) Semi-automated preparation of cell lysates: For low (inhibited) controls, 0.9 mM NVP-BGT226-AF-1 in 90% (v/v) DMSO was added to the compound master plate. For compound testing, the cells were seeded at a density of 4000 (Rat-1_PI3Kdelta), 8000 (Rat-1_PI3Kalpha), or 6500 (Rat-1_PI3Kbeta) cells in 30 μl complete growth medium into cell culture treated 384-well plates and were grown at 37° C./5% CO2/90% humidity for 24 h. 10 μl of the compound predilutions were transferred to the cells.

PI 3-kinase gamma [12] = target: T1, PI 3-kinase gamma; assay: Cellular U937 AKT assay K2 (HTRF); format: cell-based; conditions: U937 cells, K2 format; read-out: Assay K2 PI3Kγ IC50
PI 3-kinase delta [13] = target: T4, PI 3-kinase delta; assay: Cellular assay J2, p-AKT (Ser473) in Rat-1 cells, HTRF format; format: cell-based; conditions: asterisked data: version J2 (HTRF format), read-out: Assay J PI3Kδ IC50
Target sequence in this assay (O00329 whole entry): as the sequence (O00329 whole entry) above
Target sequence in this assay (Q63787 whole entry partner): as the sequence (Q63787 whole entry partner) above
Description: as §2, §3, §4

[14] = Microsomal clearance assay (M); conditions: intrinsic clearance in rat liver microsomes
Description: as §1

PI 3-kinase beta [15] = target: T3, PI 3-kinase beta; assay: Cellular assay I2, p-AKT (Ser473) in Rat-1 cells, HTRF format; format: cell-based; conditions: asterisked data: version I2 (HTRF format), read-out: Assay I PI3Kβ IC50
Target sequence in this assay (P42338 whole entry): as the sequence (P42338 whole entry) above
Target sequence in this assay (Q63787 whole entry partner): as the sequence (Q63787 whole entry partner) above
Description: as §2, §3, §4

[16] = non-asterisked data: version H1 (Surefire format), Rat-1 cells, read-out: Assay H PI3Kα IC50
[17] = non-asterisked data: version I1 (Surefire format), Rat-1 cells, read-out: Assay I PI3Kβ IC50
[18] = non-asterisked data: version J1 (Surefire format), Rat-1 cells, read-out: Assay J PI3Kδ IC50

SMILES	IC50 (PI 3-kinase gamma [1]) [µM]	IC50 [3] [µM]	IC50 (PI 3-kinase delta [6]; read-out: Assay F PI3Kδ IC50) [µM]	IC50 (PI 3-kinase alpha [7]) [µM]	IC50 (PI 3-kinase gamma [9]) [µM]	IC50 (PI 3-kinase beta [10]) [µM]	IC50 (PI 4-kinase beta; read-out: Assay D PI4Kβ IC50) [µM]	IC50 (PI 3-kinase alpha [11]) [µM]	IC50 (PI 3-kinase gamma [12]) [µM]	IC50 (PI 3-kinase delta [13]) [µM]	Assay M RLM CI(int) [14] [µL/min/mg]	IC50 (PI 3-kinase beta [15]) [µM]	IC50 (Vps34; read-out: Assay C VPS34 IC50) [µM]	IC50 (PI 3-kinase alpha [2]; [16]) [µM]	IC50 (mTOR; read-out: Assay G mTOR IC50) [µM]	IC50 (PI 3-kinase beta [5]; [17]) [µM]	IC50 (PI 3-kinase delta [8]; [18]) [µM]	other results
Cc1ccc(S(=O)(=O)NC2CCOCC2)cc1-c1cnc(N)c(-n2cncn2)n1 [Example 68, 3-(5-Amino-6-(1H-1,2,4-triazol-1-yl)pyrazin-2-yl)-4-methyl-N-(tetrahydro-2H-pyran-4-yl)benzenesulfonamide]	0.43	1.79	1.5	0.64	0.072	2.55												IC50 (PI 4-kinase beta; Assay D PI4Kβ IC50 (μM)): 4.4 µM; IC50 (PI 3-kinase alpha [2]): 2.84 µM; IC50 (mTOR; Assay G mTOR IC50 (μM)): 8.75 µM; Assay M RLM CI(int) [4]: 54 µL/min/mg; IC50 (PI 3-kinase beta [5]): 6.25 µM; IC50 (PI 3-kinase delta [8]): 3.11 µM; IC50 (Vps34): > 10 µM
Cc1ncc(-c2nc(-c3cc(S(=O)(=O)NCC4(CO)CCOCC4)ccc3C)cnc2N)s1 [Example 45.9, 3-(5-Amino-6-(2-methylthiazol-5-yl)pyrazin-2-yl)-N-((4-(hydroxymethyl)tetrahydro-2H-pyran-4-yl)methyl)-4-methylbenzenesulfonamide]			0.1	0.03	0.039	0.32	4.9	0.35	0.033	0.28	83	0.88						
Cc1ncc(-c2nc(-c3cc(S(=O)(=O)N[C@H]4C[C@H](O)C4)ccc3C)cnc2N)s1 [Example 43b, trans-3-(5-Amino-6-(2-methylthiazol-5-yl)pyrazin-2-yl)-N-(3-hydroxycyclobutyl)-4-methylbenzenesulfonamide]				0.23	0.042	1.5	4.8	5.44	0.18	2.18	45	2.95	5.5					IC50 (PI 3-kinase delta [6]): 2.2 µM
Cc1ncc(-c2nc(-c3cc(S(=O)(=O)NC[C@H]4CCCO4)ccc3C)cnc2N)s1 (single isomer, unassigned) [Example 45.6a, (R)-3-(5-Amino-6-(2-methylthiazol-5-yl)pyrazin-2-yl)-4-methyl-N-((tetrahydrofuran-2-yl)methyl)benzenesulfonamide or (S)-3-(5-Amino-6-(2-methylthiazol-5-yl)pyrazin-2-yl)-4-methyl-N-((tetrahydrofuran-2-yl)methyl)benzenesulfonamide]				0.07	0.009		4.1	0.82			228							
Cc1ncc(-c2nc(-c3cc(S(=O)(=O)N[C@H]4C[C@@H](O)C4)ccc3C)cnc2N)s1 [Example 43a, cis-3-(5-Amino-6-(2-methylthiazol-5-yl)pyrazin-2-yl)-N-(3-hydroxycyclobutyl)-4-methylbenzenesulfonamide]		0.992		0.1	0.026	0.69	2.3	2.14	0.068	0.97	63	4.56	2.5					IC50 (PI 3-kinase delta [6]): 0.67 µM
Cc1ncc(-c2nc(-c3cc(S(=O)(=O)NC[C@H]4CCCO4)ccc3C)cnc2N)s1 (single isomer, unassigned) [Example 45.6b, (R)-3-(5-Amino-6-(2-methylthiazol-5-yl)pyrazin-2-yl)-4-methyl-N-((tetrahydrofuran-2-yl)methyl)benzenesulfonamide or (S)-3-(5-Amino-6-(2-methylthiazol-5-yl)pyrazin-2-yl)-4-methyl-N-((tetrahydrofuran-2-yl)methyl)benzenesulfonamide]				0.38	0.042		> 10	1.76			237							
Cc1ncc(-c2nc(-c3cc(S(=O)(=O)NCC4CCCCO4)ccc3C)cnc2N)s1 (centres unmarked) [Example 45.4, 3-(5-Amino-6-(2-methylthiazol-5-yl)pyrazin-2-yl)-4-methyl-N-((tetrahydro-2H-pyran-2-yl)methyl)benzenesulfonamide]			0.1	0.11	0.009	0.88	1.8	1.23		0.58	502	2.13	3					
Cc1ncc(-c2nc(-c3cc(S(=O)(=O)NC[C@H]4C[C@H](O)C4)ccc3C)cnc2N)s1 [Example 20b, trans-3-[5-Amino-6-(2-methyl-thiazol-5-yl)-pyrazin-2-yl]-N-(3-hydroxy-cyclobutylmethyl)-4-methyl-benzenesulfonamide]	0.014	0.106		0.05	0.011	0.88	4.98		0.024		30		0.4	0.66	3.31	1.73	0.61	IC50 (PI 3-kinase delta [6]): 0.05 µM
Cc1ccc(S(=O)(=O)NCC2(C)COC2)cc1-c1cnc(N)c(-c2cnn(C)c2)n1 [Example 5, 3-[5-Amino-6-(1-methyl-1H-pyrazol-4-yl)-pyrazin-2-yl]-4-methyl-N-(3-methyl-oxetan-3-ylmethyl)-benzenesulfonamide]	0.078	0.696	1	0.68	0.012	0.69	6.7		0.261		26		> 10	> 10	> 10	> 10	3.45	
Cc1ccc(S(=O)(=O)NC2CC2)cc1-c1cnc(N)c(-n2cncn2)n1 [Example 127.53]	0.172	1.86	1.4	0.43	0.025	1.4	1.7		0.198		129		> 10	0.65	3.9	> 3	6.51	
Cc1ncc(-c2nc(-c3cc(S(=O)(=O)NCCCO)c(F)cc3C)cnc2N)s1 [Example 113, 5-(5-Amino-6-(2-methylthiazol-5-yl)pyrazin-2-yl)-2-fluoro-N-(3-hydroxypropyl)-4-methylbenzenesulfonamide]	0.055	0.143	0.32	0.05	0.008	0.44	1.48		0.024		39		0.47	1.08	3.45	3.57	1.08	
CCONS(=O)(=O)c1ccc(C)c(-c2cnc(N)c(-n3cncn3)n2)c1 [Example 112, 3-(5-Amino-6-(1H-1,2,4-triazol-1-yl)pyrazin-2-yl)-N-ethoxy-4-methylbenzenesulfonamide]	0.095	0.586	0.5	0.86	0.019	3.3	3.15		0.172		62		> 10	0.79	6.3	1.14	0.31	
Cc1ncc(-c2nc(-c3cc(S(=O)(=O)NCC(C)(C)O)ccc3C)cnc2N)o1 [Example 126, 3-(5-Amino-6-(2-methyloxazol-5-yl)pyrazin-2-yl)-N-(2-hydroxy-2-methylpropyl)-4-methylbenzenesulfonamide]			1	0.28	0.057	3.1	> 10	4		4.24	20	> 10	> 10					

From US10004732B2 (Novartis AG, priority 2014, dated 2018)
